The source of these data is PMC9814697, “β-Hydroxylation of α-amino-β-hydroxylbutanoyl-glycyluridine catalyzed by a nonheme hydroxylase ensures the maturation of caprazamycin” (Communications Chemistry, 2022).

For data set [1], the target named is T1, Cpz27 (Streptomyces sp. MK730-62F2, UniProt C4NCL4).
T1 construct: pGM1202, Streptomyces lividans TK64, His6-tag kept
The experiment in a line: LC-MS turnover. Format: biochemical. The following applies: 1 mM, with 500 μM compound 13, 1 mM Mg, pH 8.0, 28 °C.

Data set [2] addresses T2, Cpz15 (Streptomyces sp. MK730-62F2, UniProt C4NCK2).
T2 construct: pET28a, E. coli BL21(DE3), His6-tag kept
T2 sequence (C4NCK2 1-274): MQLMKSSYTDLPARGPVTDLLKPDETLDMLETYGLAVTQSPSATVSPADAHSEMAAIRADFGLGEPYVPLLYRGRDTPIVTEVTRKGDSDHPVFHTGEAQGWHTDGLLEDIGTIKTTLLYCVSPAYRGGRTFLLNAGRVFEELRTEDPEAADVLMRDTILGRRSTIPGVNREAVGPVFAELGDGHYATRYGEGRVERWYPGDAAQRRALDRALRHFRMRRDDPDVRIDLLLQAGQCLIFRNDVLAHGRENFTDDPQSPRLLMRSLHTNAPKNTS
Nature of the data set: LC-MS turnover. Particulars: 1 mM UMP, 1.5 mM αKG, ascorbate, FeSO4, pH 8.0, 28 °C; product uridine 5'-aldehyde. The data set is classed as biochemical.

Data set [3] deals with T3, Cpz10 (Streptomyces sp. MK730-62F2, UniProt C4NCJ7).
T3 construct: pET28a, E. coli BL21(DE3), His6-tag kept; homodimer in solution
T3 sequence (C4NCJ7 1-182): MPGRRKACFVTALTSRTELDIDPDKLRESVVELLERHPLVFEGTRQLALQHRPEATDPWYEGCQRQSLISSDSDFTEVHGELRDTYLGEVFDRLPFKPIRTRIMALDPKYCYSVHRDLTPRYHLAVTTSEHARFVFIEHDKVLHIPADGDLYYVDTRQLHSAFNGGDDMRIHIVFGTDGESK
Nature of the data set: X-ray crystal structure. The data set is classed as binding.

Substrate in data set [4]: CSCC[C@H](N)C(=O)O
Nature of the data set: LC assay, Michaelis-Menten. Particulars: pseudo-first order condition, αKG, ascorbate, FeSO4, pH 7.5, 28 °C, sulfoxidation to MSO. Format: biochemical, Streptomyces sp. MK730-62F2.

T1 sequence (C4NCL4 entry or part of it): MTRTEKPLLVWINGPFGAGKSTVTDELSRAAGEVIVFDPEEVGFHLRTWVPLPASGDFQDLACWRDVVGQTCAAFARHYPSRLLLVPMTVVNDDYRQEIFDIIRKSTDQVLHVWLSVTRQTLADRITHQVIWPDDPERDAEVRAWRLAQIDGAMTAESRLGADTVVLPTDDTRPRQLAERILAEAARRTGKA

For the molecule `Nc1ncnc2c1ncn2[C@@H]1O[C@H](COP(=O)(O)OP(=O)(O)OP(=O)(O)O)[C@@H](O)[C@H]1O` [ATP], in data set [1], the LC-MS turnover entry is given as “at the expense of one molecule of ATP”.

Consider `O=c1ccn([C@@H]2O[C@H](COP(=O)(O)O)[C@@H](O)[C@H]2O)c(=O)[nH]1` [UMP], for which, in data set [2], the LC-MS turnover result is recorded as “a new peak emerge on the LC trace concomitant with dwindling of UMP”.

As for `O=C(O)CCC(=O)O` [succinic acid], the X-ray crystal structure entry in data set [3] (formed in crystal from soaked αKG, with compound 12 and Fe1) is on record as “αKG soaked in the crystals has been converted to succinic acid”.

As for `O=C(O)CCC(=O)C(=O)O` [αKG], in data set [3] (Fe1 present, 1.9 Å, bidentate to Fe1), the X-ray crystal structure entry was “two complexes (with αKG (PDB code: 7V4M)”.

B1: Cpz10 (Streptomyces sp. MK730-62F2) (protein)
chain: MPGRRKACFVTALTSRTELDIDPDKLRESVVELLERHPLVFEGTRQLALQHRPEATDPWYEGCQRQSLISSDSDFTEVHGELRDTYLGEVFDRLPFKPIRTRIMALDPKYCYSVHRDLTPRYHLAVTTSEHARFVFIEHDKVLHIPADGDLYYVDTRQLHSAFNGGDDMRIHIVFGTDGESK
notes: pET28a, E. coli BL21(DE3), His6-tag kept; homodimer in solution
With B1, in data set [4], the Km was 892.1 ± 9 µM and the kcat is 0.977 ± 0.013 s⁻¹.
